Test results: article PMC3701070 (PLoS ONE, 2013)

Experiments:
Assay in all cases: Cell growth assay
Type in all cases: cell-based
EB-3 = conditions: Homo sapiens, 72 h; EB-3, RAF WT, RAS WT, 3-day; read-out: gIC50
Procedure: (§1) Growth was measured with CellTiter-Glo® (Promega) reagent per the manufacturer’s protocol, using a PerkinElmer EnVision™ reader at t = 0 and 72 h. IC50 values for cell growth inhibition (gIC50) were determined.
(§2) (PDF) Click here for additional data file.

RPMI-8226 = conditions: Homo sapiens, 72 h; RPMI-8226, RAF WT, RAS WT, 3-day; read-out: gIC50
Procedure: as §1, §2

NCI-H322 = conditions: Homo sapiens, 72 h; NCI-H322, RAF WT, RAS WT, 3-day; read-out: gIC50
Procedure: as §1, §2

SF-268 = conditions: Homo sapiens, 72 h; SF-268, RAF WT, RAS WT, 3-day; read-out: gIC50
Procedure: as §1, §2

SW900 = conditions: Homo sapiens, 72 h; SW900, RAF WT, RAS WT, 3-day; read-out: gIC50
Procedure: as §1, §2

ZR-75-1 = conditions: Homo sapiens, 72 h; ZR-75-1, RAF WT, RAS WT, 3-day; read-out: gIC50
Procedure: as §1, §2

DU-145 = conditions: Homo sapiens, 72 h; DU-145, RAF WT, RAS WT, 3-day; read-out: gIC50
Procedure: as §1, §2

NCI-H520 = conditions: Homo sapiens, 72 h; NCI-H520, RAF WT, RAS WT, 3-day; read-out: gIC50
Procedure: as §1, §2

ACHN = conditions: Homo sapiens, 72 h, RAF WT, RAS WT, 3-day, read-out: gIC50
Procedure: as §1, §2

SCLC-3 = conditions: Homo sapiens, 72 h; SCLC-3, RAF WT, RAS WT, 3-day; read-out: gIC50
Procedure: as §1, §2

OE-19 = conditions: Homo sapiens, OE19, 72 h; OE-19, RAF WT, RAS WT, 3-day; read-out: gIC50
Procedure: as §1, §2

MDA-MB-468 = conditions: Homo sapiens, 72 h; MDA-MB-468, RAF WT, RAS WT, 3-day; read-out: gIC50
Procedure: as §1, §2

SNU-449 = conditions: Homo sapiens, 72 h; SNU-449, RAF WT, RAS WT, 3-day; read-out: gIC50
Procedure: as §1, §2

YAPC = conditions: Homo sapiens, 72 h, RAF WT, RAS WT, 3-day, read-out: gIC50
Procedure: as §1, §2

SNU-5 = conditions: Homo sapiens, 72 h; SNU-5, RAF WT, RAS WT, 3-day; read-out: gIC50
Procedure: as §1, §2

SK-MES-1 = conditions: Homo sapiens, 72 h; SK-MES-1, RAF WT, RAS WT, 3-day; read-out: gIC50
Procedure: as §1, §2

RL = conditions: Homo sapiens, 72 h, RAF WT, RAS WT, 3-day, read-out: gIC50
Procedure: as §1, §2

MC-IXC = conditions: Homo sapiens, 72 h, RAF WT, RAS WT, 3-day, read-out: gIC50
Procedure: as §1, §2

NCI-H209 = conditions: Homo sapiens, 72 h; NCI-H209, RAF WT, RAS WT, 3-day; read-out: gIC50
Procedure: as §1, §2

NCI-H2122 = conditions: Homo sapiens, 72 h; NCI-H2122, RAF WT, RAS WT, 3-day; read-out: gIC50
Procedure: as §1, §2

HuT78 = conditions: Homo sapiens, 72 h; HuT78, RAF WT, RAS WT, 3-day; read-out: gIC50
Procedure: as §1, §2

NCI-H716 = conditions: Homo sapiens, 72 h; NCI-H716, RAF WT, RAS WT, 3-day; read-out: gIC50
Procedure: as §1, §2

Raji = conditions: Homo sapiens, 72 h, RAF WT, RAS WT, 3-day, read-out: gIC50
Procedure: as §1, §2

NCI-H460 = conditions: Homo sapiens, 72 h; NCI-H460, RAF WT, KRAS(Q61H), 3-day; read-out: gIC50
Procedure: as §1, §2

NCI-H2030 = conditions: Homo sapiens, 72 h; NCI-H2030, RAF WT, RAS WT, 3-day; read-out: gIC50
Procedure: as §1, §2

T-84 = conditions: Homo sapiens, T84, 72 h; T-84, RAF WT, KRAS(G13D), 3-day; read-out: gIC50
Procedure: as §1, §2

ARH-77 = conditions: Homo sapiens, 72 h; ARH-77, RAF WT, RAS WT, 3-day; read-out: gIC50
Procedure: as §1, §2

BT-20 = conditions: Homo sapiens, 72 h; BT-20, RAF WT, RAS WT, 3-day; read-out: gIC50
Procedure: as §1, §2

SW-837 = conditions: Homo sapiens, SW837, 72 h; SW-837, RAF WT, KRAS(G12C), 3-day; read-out: gIC50
Procedure: as §1, §2

SR = conditions: Homo sapiens, 72 h, RAF WT, RAS WT, 3-day, read-out: gIC50
Procedure: as §1, §2

MALME-3M = conditions: Homo sapiens, 72 h, BRAF(V600E), RAS WT, 3-day, read-out: gIC50
Procedure: as §1, §2

HeLa = conditions: Homo sapiens, 72 h, RAF WT, RAS WT, 3-day, read-out: gIC50
Procedure: as §1, §2

NCI-H2228 = conditions: Homo sapiens, 72 h; NCI-H2228, RAF WT, RAS WT, 3-day; read-out: gIC50
Procedure: as §1, §2

SMILES: CC(C)(C)c1nc(-c2cccc(NS(=O)(=O)c3c(F)cccc3F)c2F)c(-c2ccnc(N)n2)s1 [dabrafenib]
- IC50 (EB-3): > 10 µM
- IC50 (RPMI-8226): 263 nM
- IC50 (NCI-H322): > 10 µM
- IC50 (SF-268): > 10 µM
- IC50 (SW900): > 10 µM
- IC50 (ZR-75-1): > 10 µM
- IC50 (DU-145): > 10 µM
- IC50 (NCI-H520): > 10 µM
- IC50 (ACHN): 294 nM
- IC50 (SCLC-3): > 10 µM
- IC50 (OE-19): > 10 µM
- IC50 (MDA-MB-468): > 10 µM
- IC50 (SNU-449): > 10 µM
- IC50 (YAPC): > 10 µM
- IC50 (SNU-5): > 10 µM
- IC50 (SK-MES-1): 329 nM
- IC50 (RL): > 10 µM
- IC50 (MC-IXC): > 10 µM
- IC50 (NCI-H209): > 10 µM
- IC50 (NCI-H2122): > 10 µM
- IC50 (HuT78): 52 nM
- IC50 (NCI-H716): > 10 µM
- IC50 (Raji): > 10 µM
- IC50 (NCI-H460): > 10 µM
- IC50 (NCI-H2030): > 10 µM
- IC50 (T-84): > 10 µM
- IC50 (ARH-77): > 10 µM
- IC50 (BT-20): > 10 µM
- IC50 (SW-837): > 10 µM
- IC50 (SR): > 10 µM
- IC50 (MALME-3M): 1 nM
- IC50 (HeLa): > 10 µM
- IC50 (NCI-H2228): > 10 µM
